Results published in the supplement of paper PMC10307832.

Tests used:
Assay in all cases: relative viability (nuclei count vs DMSO), 5 days (fraction); higher = more cells survive
A-427 = system: A-427
In short: (§1)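 For relative viability, nuclei counts in treated wells were divided by those in vehicle wells. Lung cancer cell lines had been pin-tool dosed in 1536-well plates the day after seeding and cultured for 5 days, then fixed and stained in one step (final 0.05% Triton X-100, 1% formaldehyde, 1 ug/ml Hoechst) and imaged at 4×. Doses were one drug alone or a fixed anchor-drug dose plus five library-drug doses (not always all listed) in √10 steps, and values are duplicate-plate medians.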

COR-L23 = system: COR-L23
In short: as §1

ChaGo-K-1 = system: ChaGo-K-1
In short: as §1

EKVX = system: EKVX
In short: as §1

EPLC-272H = system: EPLC-272H
In short: as §1

HCC-366 = system: HCC-366
In short: as §1

HCC-44 = system: HCC-44
In short: as §1

HCC-78 = system: HCC-78
In short: as §1

HOP-62 = system: HOP-62
In short: as §1

IA-LM = system: IA-LM
In short: as §1

LOU-NH91 = system: LOU-NH91
In short: as §1

NCI-H1299 = system: NCI-H1299
In short: as §1

NCI-H1395 = system: NCI-H1395
In short: as §1

CCCCCCCCCCCC1=C(O)C(=O)C=C(O)C1=O [Embelin] + O=C(c1cc(Cc2n[nH]c(=O)c3ccccc23)ccc1F)N1CCN(C(=O)C2CC2)CC1 [Olaparib] (partner 8 µM)
relative viability (A-427; first compound 0.08 µM): 0.765 | relative viability (A-427; first compound 0.8 µM): 0.872 | relative viability (A-427; first compound 2.53 µM): 0.792 | relative viability (A-427; first compound 8 µM): 0.524 | relative viability (COR-L23; first compound 0.08 µM): 0.373 | relative viability (COR-L23; first compound 0.8 µM): 0.352 | relative viability (COR-L23; first compound 2.53 µM): 0.348 | relative viability (COR-L23; first compound 8 µM): 0.346 | relative viability (ChaGo-K-1; first compound 0.08 µM): 0.464 | relative viability (ChaGo-K-1; first compound 0.8 µM): 0.319 | relative viability (ChaGo-K-1; first compound 2.53 µM): 0.441 | relative viability (ChaGo-K-1; first compound 8 µM): 0.45 | relative viability (EKVX; first compound 0.08 µM): 0.816 | relative viability (EKVX; first compound 0.8 µM): 0.856 | relative viability (EKVX; first compound 2.53 µM): 0.984 | relative viability (EKVX; first compound 8 µM): 0.897 | relative viability (EPLC-272H; first compound 0.08 µM): 0.845 | relative viability (EPLC-272H; first compound 0.8 µM): 0.924 | relative viability (EPLC-272H; first compound 2.53 µM): 0.752 | relative viability (EPLC-272H; first compound 8 µM): 1.14 | relative viability (HCC-366; first compound 0.08 µM): 0.335 | relative viability (HCC-366; first compound 0.8 µM): 0.369 | relative viability (HCC-366; first compound 2.53 µM): 0.372 | relative viability (HCC-366; first compound 8 µM): 0.423 | relative viability (HCC-44; first compound 0.08 µM): 0.989 | relative viability (HCC-44; first compound 0.8 µM): 0.959 | relative viability (HCC-44; first compound 2.53 µM): 1.01 | relative viability (HCC-44; first compound 8 µM): 1 | relative viability (HCC-78; first compound 0.08 µM): 0.953 | relative viability (HCC-78; first compound 0.8 µM): 0.78 | relative viability (HCC-78; first compound 2.53 µM): 0.961 | relative viability (HCC-78; first compound 8 µM): 0.778 | relative viability (HOP-62; first compound 0.08 µM): 0.29 | relative viability (HOP-62; first compound 0.8 µM): 0.253 | relative viability (HOP-62; first compound 2.53 µM): 0.354 | relative viability (HOP-62; first compound 8 µM): 0.451 | relative viability (IA-LM; first compound 0.08 µM): 0.899 | relative viability (IA-LM; first compound 0.8 µM): 0.894 | relative viability (IA-LM; first compound 2.53 µM): 0.847 | relative viability (IA-LM; first compound 8 µM): 0.616 | relative viability (LOU-NH91; first compound 0.08 µM): 0.931 | relative viability (LOU-NH91; first compound 0.8 µM): 1.01 | relative viability (LOU-NH91; first compound 2.53 µM): 0.988 | relative viability (LOU-NH91; first compound 8 µM): 0.924 | relative viability (NCI-H1299; first compound 0.08 µM): 0.987 | relative viability (NCI-H1299; first compound 0.8 µM): 1.01 | relative viability (NCI-H1299; first compound 2.53 µM): 0.994 | relative viability (NCI-H1299; first compound 8 µM): 0.987 | relative viability (NCI-H1395; first compound 0.08 µM): 0.539 | relative viability (NCI-H1395; first compound 0.8 µM): 0.486
